Measured values published in patent US5126258A (priority 1988, dated 1992).

Tests used:
[1] = Spontaneous (uncatalyzed, background) hydrolysis; assay type: physicochemical; conditions: for Spon. (spontaneous hydrolysis): pH 8.0, 50 mM phosphate, time (h): 17 2, 18 24, 20 0.33, 5 0.33, 22 3.5
Method in brief: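 Background (uncatalyzed) hydrolysis of ester substrates measured in 50 mM phosphate buffer, pH 8.0, without antibody, as percentage of reactant consumed over the stated period. Quantified by C18 HPLC (acetonitrile/water with 0.1% trichloroacetic acid); Compounds 5 and 20 followed by fluorescence (ex 355 nm, em 455 nm).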

[2] = tested on: 21G2; assay: Hydrolysis of reactant ligands by receptor 21G2; assay type: biochemical, mouse; conditions: for hydrolysis by 21G2: pH 8.0, receptor/ligand uM, time h: 17 1/10, 2, 18 2/10, 24, 20 2/10, 0.33, 5 1/5, 0.33, 22 5/10, 3.5, preliminary
Method: (§1) ^1 Preliminary initial hydrolyses shown as the percentage of admixed
(§2) reactant ligand consumed for catalyzed and spontaneous hydrolyses. "--" =
(§3) No hydrolysis observed. "NT" = Not tried. All reactions were carried out
(§4) at pH 8.0 in a 50 mM phosphate buffer unless otherwise noted. Hydrolytic
(§5) percentages were determined by HPLC using a Hitachi model 655A12 liquid
(§6) chromatograph with a C18 Vydac 201TP54 column, except as noted below.
(§7) Mixtures of acetonitrile a nd water containing 0.1 percent trichloroaceti
(§8) acid [28:72-50:50 (v/v)] were used as elutant. Hydrolyses of Compounds 5
(§9) and 20 were assayed using fluorescence data.
(§10) ^2 Concentrations of receptor molecules (Rec.) and reactant ligands
(§11) (Lig.) in micromolar units, presuming a molecular weight of 150,000
(§12) daltons for each receptor molecule.
(§13) ^3 Reactant ligand (Lig.) used as substrate.
(§14) ^4 Time in hours that the reaction was permitted to take place.
(§15) ^5 Spontaneous hydrolytic percentages for the time period indicated.
(§16) ^6 Reaction carried out at pH 7.2 in a 50 mM phosphate buffer.

[3] = tested on: 7E5; assay: Hydrolysis of reactant ligands by receptor 7E5; assay type: biochemical, mouse; conditions: for hydrolysis by 7E5: pH 8.0, receptor/ligand uM, time h: 17 1/10, 2, 18 2/10, 24, 20 2/10, 0.33, 5 1/5, 0.33, 22 5/10, 3.5, preliminary
Method: as §1, §2, §3, §4, §5, §6, §7, §8, §9, §10, §11, §12, §13, §14, §15, §16

[4] = tested on: 37G2; assay: Hydrolysis of reactant ligands by receptor 37G2; assay type: biochemical, mouse; conditions: for hydrolysis by 37G2: pH 8.0, receptor/ligand uM, time h: 17 1/10, 2, 18 2/10, 24, 20 2/10, 0.33, 5 1/5, 0.33, 22 5/10, 3.5, preliminary
Method: as §1, §2, §3, §4, §5, §6, §7, §8, §9, §10, §11, §12, §13, §14, §15, §16

[5] = tested on: 13E10; assay: Hydrolysis of reactant ligands by receptor 13E10; assay type: biochemical, mouse; conditions: for hydrolysis by 13E10: pH 8.0, receptor/ligand uM, time h: 17 1/10, 2, 18 2/10, 24, 20 2/10, 0.33, 5 1/5, 0.33, 22 5/10, 3.5, preliminary
Method: as §1, §2, §3, §4, §5, §6, §7, §8, §9, §10, §11, §12, §13, §14, §15, §16

[6] = tested on: 1209; assay: Hydrolysis of reactant ligands by receptor 12C9 (column head prints 1209); assay type: biochemical, mouse; conditions: for hydrolysis by 1209: pH 8.0, receptor/ligand uM, time h: 17 1/10, 2, 18 2/10, 24, 20 2/10, 0.33, 5 1/5, 0.33, 22 5/10, 3.5, preliminary
Method: as §1, §2, §3, §4, §5, §6, §7, §8, §9, §10, §11, §12, §13, §14, §15, §16

[7] = tested on: 44A2; assay: Hydrolysis of reactant ligands by receptor 44A2; assay type: biochemical, mouse; conditions: for hydrolysis by 44A2: pH 8.0, receptor/ligand uM, time h: 17 1/10, 2, 18 2/10, 24, 20 2/10, 0.33, 5 1/5, 0.33, 22 5/10, 3.5, preliminary
Method: as §1, §2, §3, §4, §5, §6, §7, §8, §9, §10, §11, §12, §13, §14, §15, §16

[8] = tested on: 17G8; assay: Hydrolysis of reactant ligands by receptor 17G8; assay type: biochemical, mouse
Method: as §1, §2, §3, §4, §5, §6, §7, §8, §9, §10, §11, §12, §13, §14, §15, §16

[9] = tested on: 22F5; assay: Hydrolysis of reactant ligands by receptor 22F5; assay type: biochemical, mouse; conditions: for hydrolysis by 22F5: pH 8.0, receptor/ligand uM, time h: 17 1/10, 2, 18 2/10, 24, 20 2/10, 0.33, 5 1/5, 0.33, 22 5/10, 3.5, preliminary
Method: as §1, §2, §3, §4, §5, §6, §7, §8, §9, §10, §11, §12, §13, §14, §15, §16

[10] = pH 7.2, 1 uM receptor, 10 uM ligand, 2 h

| spontaneous rate of hydrolysis ([1]; above pH 8.0) | Spon. (spontaneous hydrolysis) [1] | hydrolysis by 21G2 [2] | hydrolysis by 7E5 [3] | hydrolysis by 37G2 [4] | hydrolysis by 13E10 [5] | hydrolysis by 1209 [6] | hydrolysis by 44A2 [7] | hydrolysis by 17G8 ([8]; pH 8.0, receptor/ligand uM, time h: 18 2/10, 24, 20 2/10, 0.33, 5 1/5, 0.33, 22 5/10, 3.5, preliminary) | hydrolysis by 22F5 [9] | Spon. (spontaneous hydrolysis), pH 7.2 ([1]; pH 7.2, 50 mM phosphate, 2 h) | hydrolysis by 21G2, pH 7.2 [2, 10] | hydrolysis by 7E5, pH 7.2 [3, 10] | hydrolysis by 37G2, pH 7.2 [4, 10] | hydrolysis by 13E10, pH 7.2 [5, 10] | hydrolysis by 1209, pH 7.2 [6, 10] | hydrolysis by 44A2, pH 7.2 [7, 10] | hydrolysis by 17G8, pH 7.2 [8, 10] | hydrolysis by 22F5, pH 7.2 [9, 10] | Compound |
| --- | --- | --- | --- | --- | --- | --- | --- | --- | --- | --- | --- | --- | --- | --- | --- | --- | --- | --- | --- |
| rapid | 5 percentage of reactant ligand | 43 percentage of reactant ligand | 8 percentage of reactant ligand | 12 percentage of reactant ligand | 13 percentage of reactant ligand | 11 percentage of reactant ligand | 47 percentage of reactant ligand | 16 percentage of reactant ligand | 48 percentage of reactant ligand |  |  |  |  |  |  |  |  |  | O=C(Cc1ccc(NC(=O)C(F)(F)F)cc1)Oc1ccc2ccc(=O)oc2c1 [Compound 5] |
|  | 7 percentage of reactant ligand | 10 percentage of reactant ligand | 30 percentage of reactant ligand | 60 percentage of reactant ligand | 32 percentage of reactant ligand | 55 percentage of reactant ligand | 62 percentage of reactant ligand |  | 51 percentage of reactant ligand | 4 percentage of reactant ligand | 10 percentage of reactant ligand | 35 percentage of reactant ligand | 39 percentage of reactant ligand | 33 percentage of reactant ligand | 35 percentage of reactant ligand | 19 percentage of reactant ligand | 15 percentage of reactant ligand | 16 percentage of reactant ligand | CC(=O)Nc1ccc(CC(=O)Oc2cccc3ccccc23)cc1 [Compound 17] |
